pIC50, pKi: −log10 of the molar value.
Columns and labels:
Rattus norvegicus [1] = species: Rattus norvegicus; experiment: Mean occulation time was measured in rat arterial thrombosis model; format: functional
Serine protease 1 = Serine protease 1 (Homo sapiens, UniProt P07477); experiment: In vitro activity against human alpha trypsin was determined
Rattus norvegicus [2] = species: Rattus norvegicus; experiment: Thrombin time was measured in rat arterial thrombosis model; format: functional
Rattus norvegicus [3] = species: Rattus norvegicus; experiment: Activated partial thromboplastin time was measured in rat arterial thrombosis model; format: functional
Prothrombin = Prothrombin (Homo sapiens, UniProt P00734); experiment: In vitro activity against human alpha thrombin was determined
[4] = Oral bioavailability in rat (dose 30 mg/kg); format: ADME, organism-based; conditions: in vivo

Serine protease 1, sequence (P07477 whole entry): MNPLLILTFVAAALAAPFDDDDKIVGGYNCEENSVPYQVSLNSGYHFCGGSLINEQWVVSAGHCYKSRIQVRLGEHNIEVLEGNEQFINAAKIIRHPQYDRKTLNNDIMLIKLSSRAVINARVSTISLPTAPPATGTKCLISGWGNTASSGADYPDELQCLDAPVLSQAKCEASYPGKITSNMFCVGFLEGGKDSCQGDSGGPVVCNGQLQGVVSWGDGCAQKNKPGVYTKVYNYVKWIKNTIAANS

Row | pKi (Serine protease 1) | pKi (Prothrombin) | bioavailability [4] [%] | pIC50 (Serine protease 1) | pIC50 (Prothrombin) | Compound | MOT (Rattus norvegicus [1]) [min] | TT (Rattus norvegicus [2]) [s] | APTT (Rattus norvegicus [3]) [s]
1 | 5.62 | 9.48 |  |  |  | CNC(=O)C(=O)C(NC(=O)[C@@H]1CC[C@H]2CN(S(=O)(=O)Cc3ccccc3)CC(=O)N21)[C@H]1CC[C@H](N)CC1 (some centres undefined) | 20 | 999 | 47
2 | 5.66 | 10.05 | 0.4 |  |  | N[C@H]1CC[C@H](C(NC(=O)[C@@H]2CC[C@H]3CN(S(=O)(=O)Cc4ccccc4)CC(=O)N32)C(=O)C(=O)O)CC1 (some centres undefined) | >60 | 938 | 54
3 | 5.85 | 9.14 | 0.6 |  |  | N[C@H]1CC[C@H](C(NC(=O)[C@@H]2CC[C@H]3CN(S(=O)(=O)Cc4ccccc4)CC(=O)N32)C(=O)c2nc3ccccc3s2)CC1 (some centres undefined) | >60 | 339 | 25
4 |  | 9.89 | 1.1 |  |  | COC(=O)C(=O)C(NC(=O)[C@@H]1CC[C@H]2CN(S(=O)(=O)Cc3ccccc3)CC(=O)N21)[C@H]1CC[C@H](N)CC1 (some centres undefined) | >60 | 999 | 46
5 | 4.54 | 8.67 |  |  |  | N[C@H]1CC[C@H](C(NC(=O)[C@@H]2CC[C@H]3CN(S(=O)(=O)Cc4ccccc4)CC(=O)N32)C(=O)C(=O)NCC(=O)O)CC1 (some centres undefined) |  |  | 

Further lines, the compound ahead of its results:

Row | Compound | pKi (Serine protease 1) | pKi (Prothrombin) | bioavailability [4] [%] | pIC50 (Serine protease 1) | pIC50 (Prothrombin) | MOT (Rattus norvegicus [1]) [min] | TT (Rattus norvegicus [2]) [s] | APTT (Rattus norvegicus [3]) [s]
6 | Cc1nc(C(=O)C(NC(=O)[C@@H]2CC[C@H]3CN(S(=O)(=O)Cc4ccccc4)CC(=O)N32)[C@H]2CC[C@H](N)CC2)sc1C(=O)O (some centres undefined) | 4.19 | 7.10 | 0.4 |  |  | 16 | 99 | 20
7 | CCCCOC(=O)C(=O)C(NC(=O)[C@@H]1CC[C@H]2CN(S(=O)(=O)Cc3ccccc3)CC(=O)N21)[C@H]1CC[C@H](N)CC1 (some centres undefined) |  |  | 0.7 | 6.26 | 10.00 | 47 | 883 | 53
8 | N[C@H]1CC[C@H](C(NC(=O)[C@@H]2CC[C@H]3CN(S(=O)(=O)Cc4ccccc4)CC(=O)N32)C(=O)c2nccs2)CC1 (some centres undefined) | 5.10 | 8.49 | 1.8 |  |  | > 60 | 829 | 66
9 | N[C@H]1CC[C@H](C(NC(=O)[C@@H]2CC[C@H]3CN(S(=O)(=O)Cc4ccccc4)CC(=O)N32)C(=O)c2nnnn2CC(=O)O)CC1 (some centres undefined) | < 3.40 |  |  |  |  |  |  | 
10 | Cn1nnnc1C(=O)C(NC(=O)[C@@H]1CC[C@H]2CN(S(=O)(=O)Cc3ccccc3)CC(=O)N21)[C@H]1CC[C@H](N)CC1 (some centres undefined) | 4.46 | 8.30 |  |  |  | 46 | 322 | 46
11 | CCSC(=O)C(=O)C(NC(=O)[C@@H]1CC[C@H]2CN(S(=O)(=O)Cc3ccccc3)CC(=O)N21)[C@H]1CC[C@H](N)CC1 (some centres undefined) | 6.82 | 9.59 | 0.3 |  |  | 49 | 999 | 33

From ChEMBL document CHEMBL1133798, “Potent and selective bicyclic lactam inhibitors of thrombin. Part 4: transition state inhibitors” (Bioorg Med Chem Lett, 2001)
